According to ChEMBL document CHEMBL1201862, “PubChem BioAssay data set” (2004):
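A five-concentration, 48-hour dose response in 96-well plates underlies each endpoint, interpolated linearly between surrounding concentrations. GI50 = concentration required for 50% inhibition of growth.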 The source made the active and inactive calls. Rule as the data show it: active = GI50 up to about 1.1 µM and inactive = higher.

Columns and labels:
Assay in all cases: inhibition of tumour cell growth, NCI panel, 48 h
[1] = tested on: SF-539
[2] = tested on: HCT-15
[3] = tested on: IGROV-1
[4] = tested on: EKVX
[5] = tested on: A549
[6] = tested on: MDA-N
[7] = tested on: SF-268
[8] = tested on: SW-620
[9] = tested on: M14
[10] = tested on: OVCAR-8
[11] = tested on: RPMI-8226
[12] = tested on: OVCAR-3
[13] = tested on: UACC-257
[14] = tested on: OVCAR-4
[15] = tested on: CCRF-CEM
[16] = tested on: SK-MEL-2
[17] = tested on: CAKI-1
[18] = tested on: NCI-H23
[19] = tested on: A498
[20] = tested on: SK-OV-3

| SMILES | GI50 [1] | GI50 [2] [µM] | GI50 [3] | GI50 [4] | GI50 [5] | GI50 [6] | GI50 [7] | GI50 [8] | GI50 [9] | GI50 [10] | GI50 [11] | GI50 [12] | GI50 [13] | GI50 [14] | GI50 [15] | GI50 [16] | GI50 [17] | GI50 [18] | GI50 [19] | GI50 [20] |
| --- | --- | --- | --- | --- | --- | --- | --- | --- | --- | --- | --- | --- | --- | --- | --- | --- | --- | --- | --- | --- |
| Fc1ccc(OCc2nc3cc(C(F)(F)F)ccc3nc2-c2ccccc2)cc1 | > 100 µM (inactive) | > 66.2 | > 100 µM (inactive) | > 86.9 µM (inactive) | > 100 µM (inactive) | > 100 µM (inactive) | > 100 µM (inactive) | > 100 µM (inactive) | > 94 µM (inactive) | > 100 µM (inactive) | 46.6 µM (inactive) | > 100 µM (inactive) | > 23.8 µM (inactive) | 92 µM (inactive) | > 44.1 µM (inactive) | > 100 µM (inactive) | > 100 µM (inactive) | > 100 µM (inactive) | > 100 µM (inactive) |  |
| NS(=O)(=O)c1nnc(NC(=O)/C=C/C(=O)O)s1 | > 100 µM (inactive) | > 100 |  | > 100 µM (inactive) | > 100 µM (inactive) | > 100 µM (inactive) | > 100 µM (inactive) | > 100 µM (inactive) | > 100 µM (inactive) | > 100 µM (inactive) | > 100 µM (inactive) | > 100 µM (inactive) | > 100 µM (inactive) | > 100 µM (inactive) |  | > 100 µM (inactive) | > 100 µM (inactive) | > 100 µM (inactive) | > 100 µM (inactive) | > 100 µM (inactive) |
| O=[N+]([O-])c1cc2c(cc1/C=N/n1c(CO)nc3ccccc31)OCO2 | > 100 µM (inactive) | > 100 |  | > 100 µM (inactive) | > 100 µM (inactive) | > 100 µM (inactive) | > 100 µM (inactive) | > 100 µM (inactive) | > 100 µM (inactive) | > 100 µM (inactive) | > 100 µM (inactive) | > 100 µM (inactive) | > 100 µM (inactive) | > 100 µM (inactive) | > 100 µM (inactive) | > 100 µM (inactive) | > 100 µM (inactive) | > 100 µM (inactive) | > 100 µM (inactive) | > 100 µM (inactive) |
| CC(CS(=O)(=O)Cc1ccccc1)C(N)=O (stereo not drawn) | > 100 µM (inactive) | > 100 | > 100 µM (inactive) | > 100 µM (inactive) | > 100 µM (inactive) | > 100 µM (inactive) | > 100 µM (inactive) | > 100 µM (inactive) | > 100 µM (inactive) | > 100 µM (inactive) | > 100 µM (inactive) | > 100 µM (inactive) | > 100 µM (inactive) | > 100 µM (inactive) |  | > 100 µM (inactive) | > 100 µM (inactive) | > 100 µM (inactive) | > 100 µM (inactive) | > 100 µM (inactive) |
| Cn1c(=O)c2c(nc3n2CC(C(=O)O)N3)n(C)c1=O (stereo not drawn) | > 100 µM (inactive) | > 100 | > 100 µM (inactive) | > 100 µM (inactive) | > 100 µM (inactive) | > 100 µM (inactive) | > 100 µM (inactive) | > 100 µM (inactive) | > 100 µM (inactive) | > 100 µM (inactive) | > 100 µM (inactive) | > 100 µM (inactive) | > 100 µM (inactive) | > 100 µM (inactive) |  | > 100 µM (inactive) | > 100 µM (inactive) | > 100 µM (inactive) | > 100 µM (inactive) | > 100 µM (inactive) |
| COc1ccccc1NC(=O)C(=O)C(C#N)CC(C)(C)C=O (stereo not drawn) | > 100 µM (inactive) | > 100 | > 100 µM (inactive) | > 100 µM (inactive) | > 100 µM (inactive) | > 100 µM (inactive) | > 100 µM (inactive) | > 100 µM (inactive) | > 100 µM (inactive) | > 100 µM (inactive) | > 100 µM (inactive) | > 100 µM (inactive) | > 100 µM (inactive) | > 100 µM (inactive) |  | > 100 µM (inactive) | > 100 µM (inactive) | > 100 µM (inactive) | > 100 µM (inactive) | > 100 µM (inactive) |
